Consider 77 compounds from ChEMBL document CHEMBL1125698, “Using theoretical descriptors in quantitative structure-activity relationships: some toxicological indices” (J Med Chem, 1991).

One data set has as its system Lithobates pipiens. The data set can be described thus: Inhibition of Rana pipiens muscle activity. It counts as functional, frog, Muscle tissue.
Data set [1] is described as follows: Toxicity determined using Golden Orfe Fish Test. To be noted: leuciscus idus.
Data set [2] can be described thus: Toxicity determined using Konemann's Industrial Pollutants Toxicity Test. The conditions noted are these: fish.
Data set [3] can be described thus: Toxicity determined using Tadpole Narcosis Test. To be noted: frog.
Data set [4] in a line: The toxicity of compound was determined using Konemann's Industrial Pollutants Toxicity Test.
Data set [5] in a line: Toxicity determined using Microtox Test. Format: ADME, Bacteria.

Regarding `CCCCCCO` [1-HEXANOL], in the data set on Lithobates pipiens, the “Log MBC” value is 0.56. In addition, in data set [1], the “Log LC50” value is -0.315. Take `Clc1cc(Cl)c(Cl)c(Cl)c1`: the “Log LC50” value in data set [2] came to 0.57. Regarding `CCCCOC(C)=O` [ACETIC ACID BUTYL ESTER], the “Log C” value in data set [3] was -2.374. Regarding `Oc1ccc2ccccc2c1` [BETANAPHTHOL], the “Log MBC” value in the data set on Lithobates pipiens was found to be 0. With `Nc1ccccc1` [ANILINE], the “Log MBC” value in the data set on Lithobates pipiens is 1.3.

In the case of `OCc1ccccc1` [BENZYL ALCOHOL], the “Log MBC” value in the data set with Lithobates pipiens is 1.3.

With `CCCC(=O)OCC`, in data set [3], the “Log C” value was -2.367.

On to `O=C1CCCCC1` [CYCLOHEXANONE], for which, in data set [1], the “Log LC50” value is given as -0.66. For the compound `CCCC(C)=O`, the “Log C” value in data set [3] is given as -1.785. `c1ccc2ccccc2c1`: the “Log C” value in data set [3] is on record as -4.225. As for `CCOC(C)=O` [ETHYL ACETATE], in data set [3], the “Log C” value is -1.502. Consider `O=[N+]([O-])c1ccccc1` [NITROBENZENE], for which the “Log MBC” value with Lithobates pipiens was 0.47. In data set [1], the “Log LC50” value is -0.263. Regarding `CC(Cl)CCl` (stereo not given), the “Log LC50” value in data set [2] amounted to 3.01. As to `CCCCO` [BUTYL ALCOHOL], the “Log C” value in data set [3] is -1.463. For the same compound, in the data set on Lithobates pipiens, the “Log MBC” value worked out at 1.78. In data set [1], the “Log LC50” value is -1.432. `CCCCOC(=O)CCCC`: the “Log C” value in data set [3] is reported as -3.504. Turning to `c1ccc2ncccc2c1` [QUINOLINE], the “Log MBC” value in the data set on Lithobates pipiens is reported as 0.3.

With `CCOC(=O)CC` [ETHYL PROPIONATE], the “Log C” value in data set [3] was -1.898. Turning to `O=C1CCCC1` [CYCLOPENTANONE], the “Log LC50” value in data set [1] is -1.359.

In the case of `Clc1ccccc1` [CHLOROBENZENE], in data set [2], the “Log LC50” value is given as 2.23. Take `Cc1cccc(O)c1` [METACRESOL]: in data set [1], the “Log LC50” value is -0.694. For `CC(C)O` [ISOPROPYL ALCOHOL], in data set [3], the “Log C” value was -0.977. Besides, the “Log MBC” value in the data set on Lithobates pipiens is on record as 2.55. Moreover, the “Log LC50” value is on record as -2.005 in data set [1] and 5.07 in data set [4].

For the compound `CC#N` [ACETONITRILE], the “Log LC50” value in data set [1] was -2.227.

Consider `COc1ccccc1` [ANISOLE], for which the “Log C” value in data set [3] is -2.493. The “Log LC50” value in data set [1] is given as -0.305. Regarding `OC1CCCC1` [CYCLOPENTANOL], the “Log LC50” value in data set [1] is -0.97. With `CC(C)(C)O` [TERT-BUTANOL], the “Log C” value in data set [3] is listed as -1.429. Take `CC(=O)OCC(C)C` [ACETIC ACID ISOBUTYL ESTER]: the “Log C” value in data set [3] is reported as -2.33. As to `c1ccccc1` [BENZENE], the “Log C” value in data set [3] is given as -2.905. Besides, the “Log LC50” value in data set [1] was -0.417; in data set [4] it was 2.91. As to `ClC(Cl)(Cl)Cl` [CARBON TETRACHLORIDE], the “Log EC50” value in data set [5] was -0.22. In the case of `CCC(=O)CC`, in data set [3], the “Log C” value is reported as -1.861. Turning to `CCCCCO` [1-PENTANOL], the “Log MBC” value with Lithobates pipiens was found to be 1.2. As for `ClCCCl` [1,2-DICHLOROETHANE], the “Log C” value in data set [3] is on record as -2.374.

In the case of `CCCCOCCCC`, in data set [1], the “Log LC50” value is -0.303. For `ClC(Cl)C(Cl)Cl` [1,1,2,2-TETRACHLOROETHANE], in data set [2], the “Log LC50” value was 2.34. As for `C[N+](=O)[O-]` [NITROMETHANE], the “Log C” value in data set [3] is -1.08. `CCC(C)O` (stereo not given) [BUTANOL]: the “Log C” value in data set [3] is -1.433. Further, the “Log LC50” value in data set [1] was -1.477.

Consider `CCCCC(=O)OCC`, for which the “Log C” value in data set [3] is -2.716. As for `Cc1cc(Cl)c(Cl)cc1Cl`, the “Log LC50” value in data set [2] stood at 0.94.

With `CC(C)CO` [ISOBUTANOL], the “Log LC50” value in data set [1] is recorded as -1.43.

Regarding `CCCCCCCO` [1-HEPTANOL], the “Log MBC” value in the data set with Lithobates pipiens came to 0.2. The “Log LC50” value in data set [1] is -0.163. Consider `C1CCOC1` [TETRAHYDROFURAN], for which, in data set [1], the “Log LC50” value is on record as -1.815. As to `CCOCC` [ETHER], the “Log C” value in data set [3] is reported as -1.389. Besides, the “Log MBC” value with Lithobates pipiens is listed as 1.93. The “Log LC50” value in data set [1] was -1.722; in data set [4], 4.46. `CCCCCCCCO` [OCTANOL]: the “Log C” value in data set [3] is reported as -3.148. Moreover, the “Log MBC” value in the data set with Lithobates pipiens is recorded as -0.016. The “Log LC50” value in data set [1] is on record as -0.594. Regarding `Cc1ccccc1` [TOLUENE], the “Log LC50” value in data set [2] came out at 2.87. The “Log MBC” value in the data set with Lithobates pipiens turned out to be 1. Take `Cc1cccc(C)c1` [M-XYLENE]: in data set [2], the “Log LC50” value stood at 2.55. `COC=O` [FORMIC ACID METHYL ESTER]: in data set [3], the “Log C” value is -1.075. On to `CCCCC(C)O` (stereo not given) [2-HEXANOL], for which the “Log LC50” value in data set [1] was -0.359.

For the compound `Oc1ccccc1` [PHENOL], in the data set with Lithobates pipiens, the “Log MBC” value is 1. Moreover, the “Log LC50” value in data set [1] is recorded as -0.256. `c1ccc2c(c1)ccc1ccccc12`: the “Log C” value in data set [3] was -5.791. For `CCCOC(C)=O` [ACETIC ACID PROPYL ESTER], the “Log C” value in data set [3] is recorded as -1.969.

On to `CCOC(=O)C(C)C`, for which, in data set [3], the “Log C” value was -2.3. Consider `ClCCl` [METHYLENE CHLORIDE], for which the “Log LC50” value in data set [2] came out at 3.54. Turning to `CCOC=O` [ETHOXYCARBONYL GROUP], the “Log C” value in data set [3] was -1.111. As for `CC(C)=O` [ACETONE], the “Log C” value in data set [3] is recorded as -0.924. Moreover, the “Log MBC” value in the data set on Lithobates pipiens was 2.6. Further, the “Log LC50” value in data set [1] is reported as -2.259; in data set [4], 5.04. `Clc1cc(Cl)cc(Cl)c1` [1,3,5-TRICHLOROBENZENE]: the “Log LC50” value in data set [2] worked out at 1.26.

In the case of `CC(=O)c1ccccc1` [ACETOPHENONE], the “Log C” value in data set [3] is recorded as -2.891. The same measure, in the same setting: the same measure for `CCCl` [ETHYL CHLORIDE]: -1.655. On to `Clc1cc(Cl)c(Cl)cc1Cl`, for which, in data set [2], the “Log LC50” value is 0.15.

Regarding `ClC(Cl)Cl` [CHLOROFORM], the “Log C” value in data set [3] is -3.065. The “Log MBC” value in the data set on Lithobates pipiens came to 1.5. In the case of `CCC(C)(C)O` [AMYLENE HYDRATE], in data set [3], the “Log C” value is given as -1.859. Besides, the “Log LC50” value in data set [1] is recorded as -0.907.

On to `CCO` [ALCOHOL], for which the “Log LC50” value in data set [2] was determined as 5.38. For the same compound, in data set [3], the “Log C” value is -0.484. Besides, the “Log MBC” value with Lithobates pipiens is 2.75. Consider `CCCC(C)O` (stereo not given) [2-PENTANOL], for which the “Log C” value in data set [3] is given as -1.861. `CC(Cl)(Cl)Cl` [TRICHLOROETHANE]: the “Log LC50” value was 2.85 in data set [2] and -0.087 in data set [1].

As for `CCCC(O)CC` (stereo not given) [HEXAN-3-OL], in data set [1], the “Log LC50” value was -0.363. For `CCC(O)CC` [3-PENTANOL], the “Log LC50” value in data set [2] was determined as 4.05. `Cc1ccccc1C` [O-XYLENE]: the “Log LC50” value in data set [2] stood at 2.52. The “Log C” value in data set [3] is on record as -3.44. Regarding `Clc1cccc(Cl)c1Cl`, the “Log LC50” value in data set [2] is given as 1.11. In the case of `Cc1ccc(C(C)C)c(O)c1` [THYMOL], the “Log C” value in data set [3] was -3.574. In addition, the “Log MBC” value in the data set with Lithobates pipiens is -0.52.

Consider `CCCO` [PROPANOL], for which the “Log C” value in data set [3] is -1.021. Also, the “Log MBC” value in the data set with Lithobates pipiens was 2.4. In addition, the “Log LC50” value in data set [1] is recorded as -1.972. With `CCCCC` [PENTANE], in data set [3], the “Log C” value is recorded as -2.649.

For `C=CCCC`, the “Log C” value in data set [3] is recorded as -2.364. Regarding `ClC=C(Cl)Cl` [TRICHLOROETHYLENE], the “Log LC50” value in data set [1] is on record as -0.293. `c1ccncc1` [PYRIDINE]: in the data set on Lithobates pipiens, the “Log MBC” value came out at 1.77. Take `CO` [METHYL ALCOHOL]: the “Log C” value in data set [3] is 0.17. In the data set with Lithobates pipiens, the “Log MBC” value turned out to be 3.09.

Consider `CCC(C)=O` [BUTANONE], for which the “Log C” value in data set [3] is 1.401. Moreover, the “Log LC50” value in data set [1] is -1.663.

For the compound `CCCCCl` [BUTYL CHLORIDE], in data set [2], the “Log LC50” value was 3.02. With `CBr` [BROMOMETHANE], in data set [3], the “Log C” value is reported as -2.263. `CCCCCOC(C)=O` [ACETIC ACID PENTYL ESTER]: the “Log C” value in data set [3] is on record as -2.727.
